Patent US8735129B2, “Ginsenoside glycosidase derived from the genus Terrabacter, and use thereof” (Korea Research Institute of Bioscience and Biotechnology, priority 2009, dated 2014)
Several values for one entry are separate records, joined by “and”; a condition that tells them apart may be missing. Equal entries are not always repeated. Where two headings read alike, the source gives them in different places.

Tests used:
Format in all cases: biochemical, Terrabacter ginsenosidimutans Gsoil 3082
Bgl-gyp17 = test: Substrate preference with chromogenic oNP and pNP glycosides; settings: 2.0 mM substrate; for Relative activity (%): 50 mM sodium phosphate pH 7.0, 37° C., activity on ONPGlu = 100%
Method: 1 activity unit was defined as the release of o-nitrophenol or p-nitrophenol per minute. For analysis of substrate preference, 2.0 mM chromogenic oNP and pNP (p-nitrophenyl) were used as the substrates, and incubated at 37° C. for 5 minutes. The analyzed substrates (Sigma) were pNP-β-D-glucopyranoside, pNP-β-D-galactopyranoside, pNP-β-D-fucopyranoside, pNP-β-D-glucosaminide, pNP-β-L-arabinopyranoside, pNP-β-D-mannopyronoside, pNP-β-D-xylopyranoside, pNP-α-D-glucopyranoside, pNP-α-L-arabinopyranoside, pNP-α-L-arabinopyranoside, pNP-α-D-rhamnopyranoside, pNP-α-D-mannopyranoside, pNP-α-D-xylopyranoside, o-nitrophenol[oNP]-β-D-glucopyranoside, oNP-β-D-galactopyranoside, oNP-β-D-fucopyranoside, and oNP-β-D-galactopyranoside.
In order to examine the substrate specificity of Bgl-gyp17, it was incubated in 50 mM sodium phosphate buffer containing 2.0 mM βα and β-type p-NP (p-nitrophenyl) and oNP (O-nitrophenyl)-glycosidase at pH 7.0 and 37° C. […] The Km and Vmax for the hydrolysis of pNPGlc by ginsenoside glycosidase were determined using 0-2 mM substrate and the enzyme kinetics program reported by Cleland. The values measured by the program were 4.24 mM and 0.10 mmol*min^−1*mg of protein^−1 for pNpGlc.

[1] = system: purified recombinant BGL-GYP17; test: Effects of metal ions and chemical agents on ginsenoside glycosidase activity (pNPGlc substrate)
recombinant Bgl-gyp17 [2] = test: Enzymatic hydrolysis of PPD-type ginsenosides (TLC, HPLC, NMR); settings: 0.2 U enzyme, 50 mM sodium phosphate pH 7.0, 37° C., hydrolysis of glucoses at C-3
Method: In order to analyze the specificity and selectivity of the recombinant enzyme for the hydrolysis of glucose at the C-3 and C-20 positions of PPD-type ginsenoside, ginsenoside Rb1, Rb2, Rc, Rd, and Rg3 were used as substrates. Each reaction mixture containing 0.2 U enzyme, 50 mM sodium phosphate buffer 0.1% (w/v) (pH 7.0), and the substrate was incubated at 37° C. Each sample was withdrawn at regular intervals, and an equal volume of water-saturated butanol was added to stop the reaction. The n-butanol fraction was evaporated to dryness, and any residual material was dissolved in CH3OH and then examined by TLC HPLC or NMR analysis.

recombinant Bgl-gyp17 [3] = test: as above
[4] = 1 mM metal ion or reagent, 30 min at room temperature, pNPGlc substrate, 100% = 44.3 U/mg
[5] = 10 mM metal ion or reagent, 30 min at room temperature, pNPGlc substrate, 100% = 44.3 U/mg

N[C@H]1[C@H](Oc2ccc([N+](=O)[O-])cc2)O[C@H](CO)[C@@H](O)[C@@H]1O [pNP-β-D-glucosaminide]
Relative activity (%) (Bgl-gyp17): 0%

[Cl][Hg][Cl] [Hg^2+, HgCl2]
effect on Bgl-gyp17 activity [1]: strongly inhibited the activity

O=[N+]([O-])c1ccc(O[C@@H]2O[C@@H](CO)[C@H](O)[C@H]2O)cc1 [pNP-α-L-arabinofuranoside]
Relative activity (%) (Bgl-gyp17): 0%

O=[N+]([O-])c1ccc(O[C@H]2O[C@H](CO)[C@@H](O)[C@H](O)[C@H]2O)cc1 [pNP-α-D-glucopyranoside]
Relative activity (%) (Bgl-gyp17): 1.12 ± 0.214%

O=[N+]([O-])c1ccccc1O[C@@H]1O[C@H](CO)[C@@H](O)[C@H](O)[C@H]1O [oNP-β-D-glucopyranoside]
Relative activity (%) (Bgl-gyp17): 100.00 ± 3.542%
activity toward substrate (Bgl-gyp17; pH 7.0, 37° C.): highest activity

CC(C)=CCC[C@](C)(O)[C@H]1CC[C@]2(C)[C@@H]1[C@H](O)C[C@@H]1[C@@]3(C)CC[C@H](O[C@@H]4O[C@H](CO)[C@@H](O)[C@H](O)[C@H]4O[C@@H]4O[C@H](CO)[C@@H](O)[C@H](O)[C@H]4O)C(C)(C)[C@@H]3CC[C@]12C [ginsenoside Rg3]
conversion of the ginsenoside by the enzyme (product) (recombinant Bgl-gyp17 [2]): produced ginsenoside Rh2
conversion of the ginsenoside by the enzyme (product) (recombinant Bgl-gyp17 [2]; listed as Rg3): PPD

CC(C)=CCC[C@](C)(O[C@@H]1O[C@H](CO[C@@H]2O[C@@H](CO)[C@H](O)[C@H]2O)[C@@H](O)[C@H](O)[C@H]1O)[C@H]1CC[C@]2(C)[C@@H]1[C@H](O)C[C@@H]1[C@@]3(C)CC[C@H](O[C@@H]4O[C@H](CO)[C@@H](O)[C@H](O)[C@H]4O)C(C)(C)[C@@H]3CC[C@]12C [C-Mc1, compound Mc1]
conversion of the ginsenoside by the enzyme (product) (recombinant Bgl-gyp17 [2]): C-Mc

[Cl-].[Cl-].[Co+2] [CoCl2]
Relative activity (%) [1]: 100.9 ± 8.43% and 97.0 ± 5.04%

O=[N+]([O-])c1ccc(O[C@@H]2O[C@H](CO)[C@@H](O)[C@H](O)[C@@H]2O)cc1 [pNP-β-D-mannopyranoside]
Relative activity (%) (Bgl-gyp17): 0%

CCCCCCCCCCCCOS(=O)(=O)[O-].[Na+] [SDS]
concentration showing an inhibitory effect [1]: ≥ 10 mM
Relative activity (%) [1, 4]: 94.8 ± 6.98%
Relative activity (%) [1, 5]: 2.7 ± 3.22%

O=[N+]([O-])c1ccc(OC2OCC(O)C(O)C2O)cc1 [pNP-β-L-binopyranoside]
Relative activity (%) (Bgl-gyp17): 0%

O=[N+]([O-])c1ccc(O[C@@H]2OC[C@@H](O)[C@H](O)[C@H]2O)cc1 [pNP-β-D-xylopyranoside]
Relative activity (%) (Bgl-gyp17): 0%

O=[N+]([O-])c1ccc(O[C@@H]2O[C@H](CO)[C@@H](O)[C@H](O)[C@H]2O)cc1 [pNP-β-D-glucopyranoside, p-nitrophenyl-β-D-glucopyranoside]
Relative activity (%) (Bgl-gyp17): 89.52 ± 4.430%

O=[N+]([O-])c1ccccc1O[C@@H]1O[C@H](CO)[C@H](O)[C@H](O)[C@H]1O [oNP-β-D-galatopyranoside]
Relative activity (%) (Bgl-gyp17): 2.33 ± 0.081%

C[C@H]1O[C@@H](Oc2ccccc2[N+](=O)[O-])[C@H](O)[C@@H](O)[C@H]1O [oNP-β-D-fucopyranoside]
Relative activity (%) (Bgl-gyp17): 15.88 ± 0.544%

O[C@@H](CS)[C@@H](O)CS [DTT]
Relative activity (%) [1, 4]: 96.7 ± 5.59%
Relative activity (%) [1, 5]: 96.6 ± 5.14%

O=[N+]([O-])c1ccc(O[C@H]2O[C@H](CO)[C@@H](O)[C@H](O)[C@@H]2O)cc1 [pNP-α-D-mannopyranoside]
Relative activity (%) (Bgl-gyp17): 0%

[Cl-].[Cl-].[Zn+2] [ZnCl2]
Relative activity (%) [1, 4]: 92.8 ± 4.72%
Relative activity (%) [1, 5]: 72.8 ± 4.27%

C[C@H]1O[C@@H](Oc2ccc([N+](=O)[O-])cc2)[C@H](O)[C@@H](O)[C@H]1O [pNP-β-D-fucopyranoside]
Relative activity (%) (Bgl-gyp17): 6.98 ± 0.063%

O=[N+]([O-])c1ccccc1O[C@H]1O[C@H](CO)[C@H](O)[C@H](O)[C@H]1O [oNP-α-D-galactopyranoside]
Relative activity (%) (Bgl-gyp17): 0%

C[C@@H]1O[C@@H](Oc2ccc([N+](=O)[O-])cc2)[C@H](O)[C@H](O)[C@H]1O [pNP-α-L-rhamnopyranoside]
Relative activity (%) (Bgl-gyp17): 0%

[Ca+2].[Cl-].[Cl-] [CaCl2]
Relative activity (%) [1, 4]: 91.8 ± 4.59%
Relative activity (%) [1, 5]: 101.5 ± 5.23%

OCCS [Beta-Mercaptoethanol]
Relative activity (%) [1, 4]: 98.4 ± 4.89%
Relative activity (%) [1, 5]: 102.5 ± 4.57%

CC(C)=CCC[C@](C)(O[C@@H]1O[C@H](CO)[C@@H](O)[C@H](O)[C@H]1O)[C@H]1CC[C@]2(C)[C@@H]1[C@H](O)C[C@@H]1[C@@]3(C)CC[C@H](O)C(C)(C)[C@@H]3CC[C@]12C [compound K]
time at which the final product was produced (recombinant Bgl-gyp17 [3]; Rb1 substrate, enzyme 1 mg/ml): 24 h

O=C(O)CN(CCN(CC(=O)O)CC(=O)O)CC(=O)O [EDTA]
Relative activity (%) [1, 4]: 98.6 ± 6.49%
Relative activity (%) [1, 5]: 96.6 ± 4.52%

O=[N+]([O-])c1ccc(O[C@@H]2OC[C@H](O)[C@H](O)[C@H]2O)cc1 [pNP-α-L-arabinopyranoside]
Relative activity (%) (Bgl-gyp17): 0%

[Cl-].[Cl-].[Mg+2] [MgCl2]
Relative activity (%) [1, 4]: 94.8 ± 5.10%
Relative activity (%) [1, 5]: 95.2 ± 5.14%

CC(C)=CCCC(C)(OC1OC(COC2OCC(O)C(O)C2O)C(O)C(O)C1O)C1CCC2(C)C1C(O)CC1C3(C)CCC(OC4OC(CO)C(O)C(O)C4O)C(C)(C)C3CCC12C (stereo not drawn) [C—O, compound O]
conversion of the ginsenoside by the enzyme (product) (recombinant Bgl-gyp17 [2]): C—Y

CC(C)=CCC[C@](C)(O[C@@H]1O[C@H](CO[C@@H]2O[C@H](CO)[C@@H](O)[C@H](O)[C@H]2O)[C@@H](O)[C@H](O)[C@H]1O)[C@H]1CC[C@]2(C)[C@@H]1[C@H](O)C[C@@H]1[C@@]3(C)CC[C@H](O)C(C)(C)[C@@H]3CC[C@]12C [gyp LXXV, gypenoside LXXV]
conversion of the ginsenoside by the enzyme (product) (recombinant Bgl-gyp17 [2]): C—K
time at which it started to appear (recombinant Bgl-gyp17 [3]; Rb1 substrate, enzyme 1 mg/ml): 10 min
time of decrease to almost undetectable level (recombinant Bgl-gyp17 [3]; Rb1 substrate, enzyme 1 mg/ml): 24 h
time of maximum level (recombinant Bgl-gyp17 [3]; Rb1 substrate, enzyme 1 mg/ml): 2 h

CC(C)=CCC[C@](C)(O[C@@H]1O[C@H](CO[C@@H]2O[C@H](CO)[C@@H](O)[C@H](O)[C@H]2O)[C@@H](O)[C@H](O)[C@H]1O)[C@H]1CC[C@]2(C)[C@@H]1[C@H](O)C[C@@H]1[C@@]3(C)CC[C@H](O[C@@H]4O[C@H](CO)[C@@H](O)[C@H](O)[C@H]4O)C(C)(C)[C@@H]3CC[C@]12C [gyp XVII, gypenoside XVII]
conversion of the ginsenoside by the enzyme (product) (recombinant Bgl-gyp17 [2]): C—K
conversion of the ginsenoside (recombinant Bgl-gyp17 [3]; printed: when ginsenoside Rb1 was 0.1 mg/ml): subsequently converted into gyp LXXV

CC(C)=CCC[C@](C)(O[C@@H]1O[C@H](CO)[C@@H](O)[C@H](O)[C@H]1O)[C@H]1CC[C@]2(C)[C@@H]1[C@H](O)C[C@@H]1[C@@]3(C)CC[C@H](O[C@@H]4O[C@H](CO)[C@@H](O)[C@H](O)[C@H]4O[C@@H]4O[C@H](CO)[C@@H](O)[C@H](O)[C@H]4O)C(C)(C)[C@@H]3CC[C@]12C [Ginsenoside Rd]
conversion of the ginsenoside by the enzyme (product) (recombinant Bgl-gyp17 [2]): converted into F2
conversion of the ginsenoside by the enzyme (product) (recombinant Bgl-gyp17 [2]; listed as Rd): C—K

O=[N+]([O-])c1ccc(O[C@@H]2O[C@H](CO)[C@H](O)[C@H](O)[C@H]2O)cc1 [pNP-β-D-glactopyranoside]
Relative activity (%) (Bgl-gyp17): 0%

[Cl-].[Na+] [Nacl, NaCl]
Relative activity (%) [1]: 102.3 ± 5.15% and 97.7 ± 4.51%

[Cl][Cu][Cl] [CuCl2]
Relative activity (%) [1, 4]: 84.7 ± 4.48%
Relative activity (%) [1, 5]: 71.7 ± 5.07%

[Cl][Mn][Cl] [MnCl2]
Relative activity (%) [1, 4]: 101.1 ± 5.45%
Relative activity (%) [1, 5]: 96.9 ± 4.79%

[Cl-].[K+] [KCl]
Relative activity (%) [1, 4]: 102.7 ± 4.65%
Relative activity (%) [1, 5]: 96.2 ± 4.64%
